BigSolDB 2.1

O=P(O)(O)c1ccccc1-c1ccccc1O
Conditions	solubility (mole fraction)
in chlorobenzene, 300.97 K	0.013
in chlorobenzene, 304.47 K	0.0149
in chlorobenzene, 308.86 K	0.0156
in chlorobenzene, 313.71 K	0.0195
in chlorobenzene, 319.15 K	0.0274
in chlorobenzene, 325.56 K	0.036
in chlorobenzene, 332.4 K	0.047
in chlorobenzene, 338.93 K	0.0597
in chlorobenzene, 342.74 K	0.07
in chlorobenzene, 346.96 K	0.0853
in chlorobenzene, 349.4 K	0.0974
in chlorobenzene, 352.87 K	0.116
in chlorobenzene, 355.3 K	0.131
in water, 308.6 K	0.000258
in water, 314.7 K	0.000336
in water, 320.97 K	0.000396
in water, 332.2 K	0.000496
in water, 337.7 K	0.000579
in water, 342.4 K	0.000688
in water, 347.77 K	0.000763
in water, 352.6 K	0.000859
in water, 358.3 K	0.000984
in water, 362.37 K	0.00115
